Measurements published in the kinase profiling compilation of Christmann-Franck et al. (2016).

Tests used:
MAP2K6 (human) = MAP2K6 (human) (UniProt P52564); test: ELISA
MAP2K5 (human) = MAP2K5 (human) (UniProt Q13163); test: ELISA
MAP2K4 (human) = MAP2K4 (human) (UniProt P45985); test: ELISA
MAP3K11 (human) = MAP3K11 (human) (UniProt Q16584); test: ELISA
LIMK1 (human) = LIMK1 (human) (UniProt P53667); test: ELISA
PLK4 (human) = PLK4 (human) (UniProt O00444); test: ELISA
MAP3K8 (human) = MAP3K8 (human) (UniProt P41279); test: ELISA
BMPR1A (human) = BMPR1A (human) (UniProt P36894); test: ELISA
MOS (human) = MOS (human) (UniProt P00540); test: ELISA
WEE1 (human) = WEE1 (human) (UniProt P30291); test: ELISA
MAP3K5 (human) = MAP3K5 (human) (UniProt Q99683); test: ELISA
MAP3K10 (human) = MAP3K10 (human) (UniProt Q02779); test: ELISA
MAP3K10 (human), sequence (Q02779 whole entry, looked up): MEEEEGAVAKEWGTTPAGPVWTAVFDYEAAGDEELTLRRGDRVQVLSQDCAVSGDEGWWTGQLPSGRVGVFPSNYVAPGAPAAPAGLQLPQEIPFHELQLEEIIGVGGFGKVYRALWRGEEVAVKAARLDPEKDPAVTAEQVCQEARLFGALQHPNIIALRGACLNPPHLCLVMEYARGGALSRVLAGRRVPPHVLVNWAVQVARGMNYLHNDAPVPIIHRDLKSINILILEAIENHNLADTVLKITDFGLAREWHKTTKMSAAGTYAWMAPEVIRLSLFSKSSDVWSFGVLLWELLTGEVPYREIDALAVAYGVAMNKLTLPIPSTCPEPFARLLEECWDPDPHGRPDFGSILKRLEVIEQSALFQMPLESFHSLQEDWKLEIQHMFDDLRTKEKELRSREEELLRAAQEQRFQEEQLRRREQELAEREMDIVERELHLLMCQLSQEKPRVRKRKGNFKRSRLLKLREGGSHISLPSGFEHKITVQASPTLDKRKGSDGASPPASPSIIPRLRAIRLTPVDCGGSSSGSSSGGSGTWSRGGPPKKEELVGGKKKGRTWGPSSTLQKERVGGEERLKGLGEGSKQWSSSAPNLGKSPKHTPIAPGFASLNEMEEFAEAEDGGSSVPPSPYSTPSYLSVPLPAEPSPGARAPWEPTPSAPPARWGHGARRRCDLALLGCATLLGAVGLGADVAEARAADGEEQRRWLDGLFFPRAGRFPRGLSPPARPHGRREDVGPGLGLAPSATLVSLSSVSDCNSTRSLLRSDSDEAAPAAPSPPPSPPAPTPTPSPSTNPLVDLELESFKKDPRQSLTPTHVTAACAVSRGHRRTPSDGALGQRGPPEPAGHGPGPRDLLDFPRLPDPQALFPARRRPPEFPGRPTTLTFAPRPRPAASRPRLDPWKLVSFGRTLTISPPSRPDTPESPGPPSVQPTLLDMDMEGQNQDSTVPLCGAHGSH

MAP2K2 (human) = MAP2K2 (human) (UniProt P36507); test: ELISA
TTK (human) = TTK (human) (UniProt P33981); test: ELISA
MAP3K1 (human) = MAP3K1 (human) (UniProt Q13233); test: ELISA
MAP2K1 (human) = MAP2K1 (human) (UniProt Q02750); test: ELISA
MAP2K7 (human) = MAP2K7 (human) (UniProt O14733); test: ELISA
MAP3K12 (human) = MAP3K12 (human) (UniProt Q12852); test: ELISA
STK11 (human) = STK11 (human) (UniProt Q15831); test: ELISA
STK11 (human), sequence (Q15831 whole entry, looked up): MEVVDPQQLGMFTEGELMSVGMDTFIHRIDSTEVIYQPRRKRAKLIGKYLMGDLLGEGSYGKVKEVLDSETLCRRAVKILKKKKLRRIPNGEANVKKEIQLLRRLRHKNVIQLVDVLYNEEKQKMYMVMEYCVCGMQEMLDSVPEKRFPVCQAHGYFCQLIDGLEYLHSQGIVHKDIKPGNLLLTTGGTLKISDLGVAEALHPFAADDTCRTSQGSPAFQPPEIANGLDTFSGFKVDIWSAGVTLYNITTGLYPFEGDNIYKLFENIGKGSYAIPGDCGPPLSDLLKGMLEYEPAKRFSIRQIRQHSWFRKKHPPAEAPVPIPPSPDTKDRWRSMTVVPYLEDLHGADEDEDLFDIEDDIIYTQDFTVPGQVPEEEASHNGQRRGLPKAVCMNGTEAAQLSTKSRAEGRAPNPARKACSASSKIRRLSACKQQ

MAP3K2 (human) = MAP3K2 (human) (UniProt Q9Y2U5); test: ELISA
MAP3K3 (human) = MAP3K3 (human) (UniProt Q99759); test: ELISA
MAP3K9 (human) = MAP3K9 (human) (UniProt P80192); test: ELISA
MAP2K3 (human) = MAP2K3 (human) (UniProt P46734); test: ELISA
RAF1 (human) = RAF1 (human) (UniProt P04049); test: ELISA
RAF1 (human), sequence (P04049 whole entry, looked up): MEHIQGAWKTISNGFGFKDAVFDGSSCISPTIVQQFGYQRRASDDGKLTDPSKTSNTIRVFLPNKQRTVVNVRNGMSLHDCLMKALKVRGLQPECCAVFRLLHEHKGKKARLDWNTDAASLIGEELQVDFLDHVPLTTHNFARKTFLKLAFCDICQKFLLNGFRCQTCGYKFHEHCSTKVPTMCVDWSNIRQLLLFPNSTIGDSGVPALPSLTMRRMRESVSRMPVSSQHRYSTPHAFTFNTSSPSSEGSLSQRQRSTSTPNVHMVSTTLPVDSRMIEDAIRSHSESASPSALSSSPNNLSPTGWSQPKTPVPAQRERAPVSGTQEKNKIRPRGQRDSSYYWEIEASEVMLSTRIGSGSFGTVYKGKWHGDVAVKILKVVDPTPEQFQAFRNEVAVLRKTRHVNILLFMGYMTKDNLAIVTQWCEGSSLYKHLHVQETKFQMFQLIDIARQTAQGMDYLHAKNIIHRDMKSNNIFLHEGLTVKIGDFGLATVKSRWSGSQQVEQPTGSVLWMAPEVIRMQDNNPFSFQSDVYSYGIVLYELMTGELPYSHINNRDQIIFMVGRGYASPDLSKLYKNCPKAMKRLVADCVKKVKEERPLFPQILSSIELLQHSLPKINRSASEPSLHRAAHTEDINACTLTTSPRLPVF

MAP3K4 (human) = MAP3K4 (human) (UniProt Q9Y6R4); test: ELISA
MAPK12 (human) = MAPK12 (human) (UniProt P53778); test: Caliper, Mobility shift assay off-chip
PRKACA (human) = PRKACA (human) (UniProt P17612); test: Caliper, Mobility shift assay off-chip
MST4 (human) = MST4 (human) (UniProt Q9P289); test: Caliper, Mobility shift assay off-chip
CSNK1G1 (human) = CSNK1G1 (human) (UniProt Q9HCP0); test: Caliper, Mobility shift assay off-chip
CSNK1G1 (human), sequence (Q9HCP0 whole entry, looked up): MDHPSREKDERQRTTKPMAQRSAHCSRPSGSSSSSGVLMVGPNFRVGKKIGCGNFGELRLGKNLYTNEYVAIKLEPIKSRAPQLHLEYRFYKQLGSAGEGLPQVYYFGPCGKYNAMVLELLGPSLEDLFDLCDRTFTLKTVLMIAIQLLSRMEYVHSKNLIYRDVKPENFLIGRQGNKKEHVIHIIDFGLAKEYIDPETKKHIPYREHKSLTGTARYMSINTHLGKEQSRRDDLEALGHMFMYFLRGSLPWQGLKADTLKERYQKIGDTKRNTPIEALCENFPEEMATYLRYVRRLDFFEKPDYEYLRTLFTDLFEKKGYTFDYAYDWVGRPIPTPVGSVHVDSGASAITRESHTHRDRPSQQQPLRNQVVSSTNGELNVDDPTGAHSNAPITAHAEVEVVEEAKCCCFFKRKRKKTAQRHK

DYRK3 (human) = DYRK3 (human) (UniProt O43781); test: Caliper, Mobility shift assay off-chip
SLK (human) = SLK (human) (UniProt Q9H2G2); test: Caliper, Mobility shift assay off-chip
IRAK4 (human) = IRAK4 (human) (UniProt Q9NWZ3); test: Caliper, Mobility shift assay off-chip
CDC42BPA (human) = CDC42BPA (human) (UniProt Q5VT25); test: Caliper, Mobility shift assay off-chip
CDC42BPA (human), sequence (Q5VT25 whole entry, looked up): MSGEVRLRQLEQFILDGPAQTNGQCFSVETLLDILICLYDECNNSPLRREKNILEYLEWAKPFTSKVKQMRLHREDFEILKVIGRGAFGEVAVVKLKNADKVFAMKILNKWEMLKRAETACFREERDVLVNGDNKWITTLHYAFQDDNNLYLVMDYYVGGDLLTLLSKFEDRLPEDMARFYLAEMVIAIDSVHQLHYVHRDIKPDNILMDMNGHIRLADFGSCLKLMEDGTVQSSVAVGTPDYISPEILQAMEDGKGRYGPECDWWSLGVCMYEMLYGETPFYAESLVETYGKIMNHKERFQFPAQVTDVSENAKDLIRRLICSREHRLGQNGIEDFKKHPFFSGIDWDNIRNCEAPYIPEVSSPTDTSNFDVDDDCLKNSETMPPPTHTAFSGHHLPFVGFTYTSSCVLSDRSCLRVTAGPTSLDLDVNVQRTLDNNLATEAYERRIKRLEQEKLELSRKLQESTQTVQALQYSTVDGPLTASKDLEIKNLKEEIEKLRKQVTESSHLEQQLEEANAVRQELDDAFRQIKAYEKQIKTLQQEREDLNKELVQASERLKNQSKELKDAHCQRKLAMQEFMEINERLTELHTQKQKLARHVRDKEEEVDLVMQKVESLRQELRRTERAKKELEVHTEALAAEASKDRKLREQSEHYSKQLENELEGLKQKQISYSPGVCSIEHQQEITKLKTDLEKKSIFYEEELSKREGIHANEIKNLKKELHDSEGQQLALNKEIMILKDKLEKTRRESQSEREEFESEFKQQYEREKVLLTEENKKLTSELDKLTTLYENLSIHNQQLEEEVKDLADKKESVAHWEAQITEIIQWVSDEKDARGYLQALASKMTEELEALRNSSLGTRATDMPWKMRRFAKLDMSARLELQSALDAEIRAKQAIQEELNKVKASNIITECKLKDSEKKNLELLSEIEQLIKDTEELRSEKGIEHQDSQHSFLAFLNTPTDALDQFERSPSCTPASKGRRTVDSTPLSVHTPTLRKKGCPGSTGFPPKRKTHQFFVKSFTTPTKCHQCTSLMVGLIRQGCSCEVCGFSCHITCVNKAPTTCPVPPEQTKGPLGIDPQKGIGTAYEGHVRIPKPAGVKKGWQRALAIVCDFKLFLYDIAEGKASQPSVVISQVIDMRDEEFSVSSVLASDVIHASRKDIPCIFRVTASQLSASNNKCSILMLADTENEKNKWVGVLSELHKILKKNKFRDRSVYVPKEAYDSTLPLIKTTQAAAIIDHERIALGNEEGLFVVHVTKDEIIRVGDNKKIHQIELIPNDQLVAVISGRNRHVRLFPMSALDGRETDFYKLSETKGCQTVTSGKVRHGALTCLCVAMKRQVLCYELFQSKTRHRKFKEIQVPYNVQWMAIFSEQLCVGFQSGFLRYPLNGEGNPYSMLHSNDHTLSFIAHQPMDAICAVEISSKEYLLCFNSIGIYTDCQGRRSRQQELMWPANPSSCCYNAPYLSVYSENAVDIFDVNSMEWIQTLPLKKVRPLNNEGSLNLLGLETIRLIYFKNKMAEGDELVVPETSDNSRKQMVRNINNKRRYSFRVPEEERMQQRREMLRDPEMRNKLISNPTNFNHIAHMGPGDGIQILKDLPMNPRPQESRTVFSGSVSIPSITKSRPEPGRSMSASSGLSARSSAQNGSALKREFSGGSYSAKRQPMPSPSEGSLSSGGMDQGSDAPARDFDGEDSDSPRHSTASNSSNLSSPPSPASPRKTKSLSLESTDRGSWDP

NTRK2 (human) = NTRK2 (human) (UniProt Q16620); test: Caliper, Mobility shift assay off-chip

MAP2K5 (human), sequence (Q13163 whole entry, looked up): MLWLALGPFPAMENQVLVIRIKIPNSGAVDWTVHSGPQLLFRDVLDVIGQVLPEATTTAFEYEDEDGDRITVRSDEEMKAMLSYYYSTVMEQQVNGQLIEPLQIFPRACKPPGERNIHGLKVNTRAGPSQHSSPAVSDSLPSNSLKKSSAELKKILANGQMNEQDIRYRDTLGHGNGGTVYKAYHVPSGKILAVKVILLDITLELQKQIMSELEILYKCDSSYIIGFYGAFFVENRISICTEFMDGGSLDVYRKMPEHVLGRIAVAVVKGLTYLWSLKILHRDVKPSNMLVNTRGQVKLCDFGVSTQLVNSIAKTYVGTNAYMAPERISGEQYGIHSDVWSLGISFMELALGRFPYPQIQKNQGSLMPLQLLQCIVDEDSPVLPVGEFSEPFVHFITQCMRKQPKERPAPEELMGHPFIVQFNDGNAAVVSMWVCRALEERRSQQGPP
MAP2K6 (human), sequence (P52564 whole entry, looked up): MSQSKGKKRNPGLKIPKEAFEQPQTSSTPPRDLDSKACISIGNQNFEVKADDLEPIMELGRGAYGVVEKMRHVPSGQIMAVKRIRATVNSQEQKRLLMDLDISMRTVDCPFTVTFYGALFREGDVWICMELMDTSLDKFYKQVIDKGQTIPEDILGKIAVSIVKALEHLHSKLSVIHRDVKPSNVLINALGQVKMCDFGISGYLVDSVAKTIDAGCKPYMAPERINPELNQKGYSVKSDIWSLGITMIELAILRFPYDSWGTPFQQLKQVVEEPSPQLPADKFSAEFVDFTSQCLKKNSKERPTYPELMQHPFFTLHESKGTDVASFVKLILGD

With CNC(=O)c1cc(Oc2ccc(NC(=O)Nc3ccc(Cl)c(C(F)(F)F)c3)cc2)ccn1 the inhibition (MAP2K6 (human); compound 0.02 µM) was 13.6%, the inhibition (MAP2K6 (human); compound 0.2 µM) was 64.2% and the inhibition (MAP2K5 (human); compound 0.02 µM) was 3.6%. For the same compound, the inhibition (MAP2K5 (human); compound 0.2 µM) was 6.2%, the inhibition (MAP2K4 (human); compound 0.02 µM) was 1.7% and the inhibition (MAP2K4 (human); compound 0.2 µM) was 3.6%. It also gave an inhibition (MAP3K11 (human); compound 0.02 µM) of 2.4%, an inhibition (MAP3K11 (human); compound 0.2 µM) of -2.6% and an inhibition (LIMK1 (human); compound 0.02 µM) of 2.6%. It also gave an inhibition (LIMK1 (human); compound 0.2 µM) of 13%, an inhibition (PLK4 (human); compound 0.02 µM) of 10.5% and an inhibition (PLK4 (human); compound 0.2 µM) of 13.4%. For the same compound, the inhibition (MAP3K8 (human); compound 0.02 µM) was 0.5%, the inhibition (MAP3K8 (human); compound 0.2 µM) was 0.2% and the inhibition (BMPR1A (human); compound 0.02 µM) was 6.9%. It also gave an inhibition (BMPR1A (human); compound 0.2 µM) of 7%, an inhibition (MOS (human); compound 0.02 µM) of 3% and an inhibition (MOS (human); compound 0.2 µM) of 0.5%. It also gave an inhibition (WEE1 (human); compound 0.02 µM) of -7.4%, an inhibition (WEE1 (human); compound 0.2 µM) of -2% and an inhibition (MAP3K5 (human); compound 0.02 µM) of 9.6%. For the same compound, the inhibition (MAP3K5 (human); compound 0.2 µM) was 7.4%, the inhibition (MAP3K10 (human); compound 0.02 µM) was -1.8% and the inhibition (MAP3K10 (human); compound 0.2 µM) was -2.3%. The inhibition (MAP2K2 (human); compound 0.02 µM) was -1.8%, the inhibition (MAP2K2 (human); compound 0.2 µM) was -2.7% and the inhibition (TTK (human); compound 0.02 µM) was -7.6%. For the same compound, the inhibition (TTK (human); compound 0.2 µM) was -4.3%, the inhibition (MAP3K1 (human); compound 0.02 µM) was 0.7% and the inhibition (MAP3K1 (human); compound 0.2 µM) was -0.2%. It also gave an inhibition (MAP2K1 (human); compound 0.02 µM) of 13.7%, an inhibition (MAP2K1 (human); compound 0.2 µM) of 17.4% and an inhibition (MAP2K7 (human); compound 0.02 µM) of -0.7%. The inhibition (MAP2K7 (human); compound 0.2 µM) was 1.1%, the inhibition (MAP3K12 (human); compound 0.02 µM) was 4.1% and the inhibition (MAP3K12 (human); compound 0.2 µM) was 2.7%. The inhibition (STK11 (human); compound 0.02 µM) was 6.4%, the inhibition (STK11 (human); compound 0.2 µM) was 6.2% and the inhibition (MAP3K2 (human); compound 0.02 µM) was 5.2%. For the same compound, the inhibition (MAP3K2 (human); compound 0.2 µM) was 5.2%, the inhibition (MAP3K3 (human); compound 0.02 µM) was -2.1% and the inhibition (MAP3K3 (human); compound 0.2 µM) was -3%. For the same compound, the inhibition (MAP3K9 (human); compound 0.02 µM) was 8.6%, the inhibition (MAP3K9 (human); compound 0.2 µM) was 10.1% and the inhibition (MAP2K3 (human); compound 0.02 µM) was 9.8%. It also gave an inhibition (MAP2K3 (human); compound 0.2 µM) of 58.5%, an inhibition (RAF1 (human); compound 0.02 µM) of 41.7% and an inhibition (RAF1 (human); compound 0.2 µM) of 88.1%. It also gave an inhibition (MAP3K4 (human); compound 0.02 µM) of 8.5%, an inhibition (MAP3K4 (human); compound 0.2 µM) of 4.4% and an inhibition (MAPK12 (human); compound 0.02 µM) of -5.9%. For the same compound, the inhibition (MAPK12 (human); compound 0.2 µM) was -0.3%, the inhibition (PRKACA (human); compound 0.02 µM) was -4.7% and the inhibition (PRKACA (human); compound 0.2 µM) was 0.7%. The inhibition (MST4 (human); compound 0.02 µM) was -5.7%, the inhibition (MST4 (human); compound 0.2 µM) was 0.1% and the inhibition (CSNK1G1 (human); compound 0.02 µM) was -3.7%. It also gave an inhibition (CSNK1G1 (human); compound 0.2 µM) of -3%, an inhibition (DYRK3 (human); compound 0.02 µM) of -5.8% and an inhibition (DYRK3 (human); compound 0.2 µM) of 2.1%. It also gave an inhibition (SLK (human); compound 0.02 µM) of 1%, an inhibition (SLK (human); compound 0.2 µM) of 10.6% and an inhibition (IRAK4 (human); compound 0.02 µM) of -5.9%. It also gave an inhibition (IRAK4 (human); compound 0.2 µM) of -4.6%, an inhibition (CDC42BPA (human); compound 0.02 µM) of -0.8% and an inhibition (CDC42BPA (human); compound 0.2 µM) of 8.1%. It also gave an inhibition (NTRK2 (human); compound 0.02 µM) of 3.2% and an inhibition (NTRK2 (human); compound 0.2 µM) of 37.4%.
